From patent publication US11754547B2, “Biorecognition elements for detection of fungi and bacteria in fuel systems” (priority 2020, dated 2023)

Legend:
Assay in all cases: Western blot of phage-displayed peptide BRE binding to biotinylated target peptide
[1] = system: Gor-Fasciclin (SEQ. ID No. 58), Gordonia-Fasciclin; settings: phage clone with biotinylated target peptide, streptavidin bead pull-down; FIG. 5
Excerpt: (§1) Recombinant phage clones were selected using X-Gal/IPTG, which produced a blue color on phage infected E. coli colonies. After the amplification of multiple phage isolates carrying a single heptapeptide sequence (i.e., monoclonal phages), genomic DNA was isolated and sequenced to determine the aa sequences of the peptide BREs. Isolated monoclonal phages were sequenced after each round of selection. After four rounds of selection, the phage pool was enriched for target-binding phages with specific sequences. […] The binding of phages displaying specific peptide BREs to the target was assessed by Western blot analysis. Monoclonal target-specific bacteriophages were incubated with biotinylated target peptide epitope under conditions similar to those used in biopanning. The resulting phage-target complexes were recovered using streptavidin-coated magnetic beads, and the phage-target complexes were resolved via SDS-PAGE and detected by Western blot using antibodies against the M13 phage capsid and the biotin molecule attached to the specific target. Western blotting was performed by preparing a 200 μL solution with each of the phage clones at a concentration of 1×10^11 pfu/mL in 1×TBS, pH 7.5. Then, 10 μL of biotinylated target peptide of concentration 1 mg/mL was added to each phage solution and incubated at 25° C. for 1 hr. Phage-biotin target complexes were captured and pull-down with 25 μL of streptavidin-coated beads, and the captured complexes washed five times with 1×TBST. The pelleted complexes were re-suspended in 20 μL of 2× Laemmli Buffer, heated to 95° C. for 5 min, and resolved in a 14% SDS-PAGE gel. Proteins were blotted to a nitrocellulose membrane and blocked with TBST containing 5% BSA. To detect phages, a 1:2000 dilution of rabbit anti-M13 phage antibody (primary antibody) followed by a 1:5000 dilution of alkaline phosphatase (AP)-conjugated goat anti-rabbit antibody was used. For detection of biotinylated target, a 1:2000 dilution of AP-conjugated goat anti-biotin antibody was used. For colorimetric visualization, BCIP/NBT reagent was used. […]

[2] = system: CHI-P1 (SEQ. ID No. 25), Chitinase; parameters: species or system fungi; settings: phage clone with biotinylated target peptide, streptavidin bead pull-down; FIG. 4
Excerpt: as §1, with “hr.” for “hr. Phage-biotin target complexes were captured and pull-down with 25 μL of streptavidin-coated beads, and the captured complexes washed five times with 1×TBST. The pelleted complexes were re-suspended in 20 μL of 2× Laemmli Buffer, heated to 95° C. for 5 min, and resolved in a 14% SDS-PAGE gel. Proteins were blotted to a nitrocellulose membrane and blocked with TBST containing 5% BSA. To detect phages, a 1:2000 dilution of rabbit anti-M13 phage antibody (primary antibody) followed by a 1:5000 dilution of alkaline phosphatase (AP)-conjugated goat anti-rabbit antibody was used. For detection of biotinylated target, a 1:2000 dilution of AP-conjugated goat anti-biotin antibody was used. For colorimetric visualization, BCIP/NBT reagent was used.”

[3] = system: ALK-P3 (SEQ. ID No. 1), P450 Alkane Hydroxylase; parameters: species or system fungi; settings: phage clone with biotinylated target peptide, streptavidin bead pull-down; FIG. 4
Sequence of ALK-P3 (SEQ. ID No. 1), P450 Alkane Hydroxylase (as listed by the source): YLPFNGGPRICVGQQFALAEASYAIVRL
Excerpt: as §1, with “hr.” for “hr. Phage-biotin target complexes were captured and pull-down with 25 μL of streptavidin-coated beads, and the captured complexes washed five times with 1×TBST. The pelleted complexes were re-suspended in 20 μL of 2× Laemmli Buffer, heated to 95° C. for 5 min, and resolved in a 14% SDS-PAGE gel. Proteins were blotted to a nitrocellulose membrane and blocked with TBST containing 5% BSA. To detect phages, a 1:2000 dilution of rabbit anti-M13 phage antibody (primary antibody) followed by a 1:5000 dilution of alkaline phosphatase (AP)-conjugated goat anti-rabbit antibody was used. For detection of biotinylated target, a 1:2000 dilution of AP-conjugated goat anti-biotin antibody was used. For colorimetric visualization, BCIP/NBT reagent was used.”

Sequence of Gor-Fasciclin (SEQ. ID No. 58), Gordonia-Fasciclin (as listed by the source): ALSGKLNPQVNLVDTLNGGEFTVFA

| Substance | binding to Gor-Fasciclin (SEQ. ID No. 58) target, Western blot [1] | other results |
| --- | --- | --- |
| TWTLARP (Artificial Sequence Obtained Through Biopanning) [SEQ. ID No. 59] | specific binding | – |
| MPPHGDR (Artificial Sequence Obtained Through Biopanning) [SEQ. ID No. 26] | – | binding to CHI-P1 (SEQ. ID No. 25) target, Western blot [2]: specific binding |
| RSLGYTG (Artificial Sequence Obtained Through Biopanning) [SEQ. ID No. 60] | specific binding | – |
| WSLGYTG (Artificial Sequence Obtained Through Biopanning) [SEQ. ID No. 2] | – | binding to ALK-P3 (SEQ. ID No. 1) target, Western blot [3]: specific binding |
| YVPEWVS (Artificial Sequence Obtained Through Biopanning) [SEQ. ID No. 61] | specific binding | – |
